Results: ChEMBL document CHEMBL1132397, “Synthesis of 5,8-dimethoxy-3-hydroxy-4-quinolone, a reported inhibitor of HIV RT, and evidence the original proposed structure was incorrect” (Bioorg Med Chem Lett, 1999)
pKi: −log10 of the molar value.

Experiments:
[1] = target: T1, Human immunodeficiency virus type 1 reverse transcriptase (Human immunodeficiency virus 1, UniProt Q72547); test: Inhibitory activity against reverse transcriptase of HIV; Inactive
[2] = target: T1, Human immunodeficiency virus type 1 reverse transcriptase; test: Inhibitory activity against reverse transcriptase of HIV-1
[3] = target: Human immunodeficiency virus type 1 protease (Human immunodeficiency virus 1, UniProt Q72874); test: Inhibition of RNA-dependent DNA polymerase activity against wild-type HIV-1 RT at a concentration of 100 uM; No inhibition

COc1cnc2c(OC)ccc(OC)c2c1O
Ki [1]: Not Active

Oc1cnc2c(O)ccc(O)c2c1O
pKi [2]: 6.31

COc1ccc(OC)c2c(O)c(O)cnc12
Ki [3]: Not Active
